From patent EP0393604B1, “6,11-Dihydro-5H-pyrido(2,3-b)(1,5,)benzodiazepin-5-ones and thiones and their use in the prevention or treatment of AIDS” (priority 1989, dated 1990)

Legend:
H9 cell line = test: MTT Assay for Cellular Cytotoxicity; type: cell-based, human; conditions: H9 cells, five days incubation, unit inferred, 7200 min, read-out: Cytotoxity Assay (EC50)
Protocol: In order to roughly assess the cytotoxicity of the compounds of formula 1, several such compounds were tested in the MTT Cellular Cytotoxicity Assay described below.
The MTT [3-(4,5-dimethylthiazol-2yl)-2,5-diphenyl tetrazolium bromide) assay is based on cleavage of tetrazolium bromide by metabolically active cells, resulting in a highly quantitative blue color. This assay has been previously described (1) but has been optimized for the purposes of the testing reported herein.
Cells (100µl) are plated in microtest plate wells at a concentration of 10^5 cells per ml in the presence of varying concentrations of inhibitor. The cells are incubated at 37°C in a humidified CO2 incubator. […] After 4 hours additional incubation at 37°C, 60µl of Triton-X is added to each well and thoroughly mixed to aid the solubilization of the crystals. Absolute ethanol (5µl) is added to each well and the resulting mixture is incubated for 30 minutes at 60°C and immediately read on a plate reader (Dynatech) at a wavelength of 570nm.
Data from this assay are used to generate a nonlinear regression analysis, which yields the EC50.

HIV-1 RT = target: T1, HIV-1 RT (Human immunodeficiency virus type 1 group M subtype B, UniProt P03367); test: Reverse Transcriptase (RT) Assay: inhibition of RNA-dependent DNA polymerase activity; type: biochemical; conditions: 10µg/ml; Table I, compounds of formula I
T1 construct: Reverse transcriptase enzyme from the LAV strain of Human Immunodeficiency Virus (HIV-1) (1) was isolated from the bacterial strain JM109; made in house; host or cells: E. coli JM109, clone pBRTprt1+ in vector pIBI21, lac promoter, IPTG induction
From the text: Utilizing the Reverse Transcriptase (RT) Assay descibed below, compounds can be tested for their ability to inhibit the RNA-dependent DNA polymerase activity of HIV-1 RT. Certain specific compounds of formula I described in the Examples which appear below, were so tested. The above-described compounds of formula IA were also so tested.
Among the enzymes for which Human Immunodeficiency Virus (HIV-1) encodes is a reverse transcriptase (1), so-named because it transcribes a DNA copy from an RNA template. This activity can be quantitatively measured in a cell-free enzyme assay which has been previously described (2), and is based upon the observation that reverse transcriptase is able to use a synthetic template [poly r(C) primed with oligo d(G)] to transcribe a radio-labelled, acid-precipitable DNA strand utilizing ^3H-dGTP as a substrate.
Reverse transcriptase enzyme from the LAV strain of Human Immunodeficiency Virus (HIV-1) (1) was isolated from the bacterial strain JM109 (3) expressing the DNA clone pBRTprt1+ (2) which is under the control of the lac promoter in the expression vector pIBI21 (4). An overnight culture grown in 2XYT medium (37°C, 225 rpm) (5) supplemented with 100 µg/ml ampicillin for positive selection is inoculated at a 1:40 dilution into M9 medium supplemented with 10µg/ml thiamine, 0.5% casamino acids, and 50 µg/ml ampicillin (5). The culture is incubated (37°C, 225 rpm) until it reaches an OD540 of 0.3-0.4. At that time the repressor inhibitor IPTG (isopropyl b-D-thiogalactopyranoside) is added to 0.5mM and the mixture is incubated for 2 additional hours. Bacteria are pelleted, resuspended in a 50mM Tris, 0.6mM EDTA, 0.375M NaCl buffer and digested by the addition of lysozyme (1mg/ml) for 30 minutes on ice. The cells are lysed by the addition of 0.2% NP-40 and brought to 1M NaCl.
After removal of the insoluble debris by centrifugation, the protein is precipitated by the addition of 3 volumes of water-saturated ammonium sulfate. The enzyme is pelleted, resuspended in RT buffer (50mM Tris pH 7.5. 1mM EDTA, 5mM DTT, 0.1% NP-40, 0.1M NaCl, and 50% glycerol), and stored at -70°C for further use.
The 2X concentrated stock reaction mixture is aliquoted and stored at -20°C. The mixture is stable and thawed for use in each assay. This enzyme assay has been adapted to a 96 well microtiter plate system, and has been previously described (6). Tris buffer (50 mM, pH 7.4), vehicle (solvent diluted to match the compound dilution), or compounds in vehicle are dispensed into 96-well microtiter plates (10µl/well: 3 wells/compound). The HIV-1 RT enzyme is thawed and diluted in 50mM Tris pH 7.4 so that fifteen µl of diluted enzyme contain 0.001 Unit (one unit is that amount of enzyme to transform 1 micromole of substrate per minute at 25°C) and 15µl are dispensed per well. Twenty µl of 0.12 - 0.5M EDTA are added to the first three wells of the microtiter plate. EDTA chelates the Mg^++ present and prevents reverse transcription. This group serves as background polymerization which is subtracted from all other groups. Twenty-five ul of the 2X reaction mixture are added to all wells and the assay is allowed to incubate at room temperature for 60 minutes. The assay is terminated by precipitating the DNA in each well with 50µl of trichloracetic acid (TCA) (10% w/v) in sodium pyrophosphate (1% w/v). The microtiter plate is incubated for 15 minutes at 4°C and the precipitate is fixed onto #30 glass fiber paper (Schleicher & Schuell) using a Skatron semi-automatic harvester. The filters are then washed with additional TCA (5%) containing sodium pyrophosphate (1%), rinsed with aqueous ethanol (70%), dried, and transferred to scintillation vials (6). Each vial receives 2 mls of scintillation cocktail and is counted in a Beckman beta counter. […]

In the case of “Mixture of 6,11-Dihydro-2,4,6,8,11-and 6,11-dihydro-2,4,6,9,11- pentamethyl-5H-pyrido[2,3-b][1,5]benzodiazepin-5-one [Example 17]”, the CC50 (H9 cell line) is reported as 9 µM and the “RT Inhibition % @ 10µg/ml” value (HIV-1 RT) is reported as 49%.
